One assay deals with T1, P2Y12 receptor (Homo sapiens, UniProt Q9H244).
T1 construct: endogenous in cells; host or cells: human platelets (outdated from blood banks or fresh), apyrase-washed, whole
Nature of the assay: platelet ADP receptor binding assay (ARB): inhibition of [3H]2-MeS-ADP binding to platelets. To be noted: [3H]2-MeS-ADP binding to apyrase-washed human platelets. A digest of the protocol: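 Apyrase-washed human platelets (1×10^8 per well) were preincubated 5 min with serial compound dilutions in Hepes-Tyrode's/0.1% BSA/0.6% DMSO, then incubated 15 min at room temperature with 1 nM [3H]2-MeS-ADP. Filter-bound radioactivity gave specific binding (nonspecific: 10 μM 2-MeS-ADP), and IC50s came from non-linear regression.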

Assay [1] concerns human platelet-rich plasma (PRP). Nature of the assay: PRP assay: inhibition of ADP-mediated platelet aggregation in vitro. In kind it is cell-based. To be noted: Homo sapiens, Platelet, ADP-induced aggregation. On the procedure:
The effect of testing the compound according to the invention on ADP-induced human platelet aggregation was assessed in a 96-well microtiter assay (see generally the procedures in Jantzen, H. M. et al. (1999) Thromb. Hemost. 81:111-117) or standard cuvette light transmittance aggregometry using either human platelet-rich plasma (PRP) or human washed platelets.
For preparation of human platelet-rich plasma for aggregation assays, human venous blood was collected from healthy, drug-free volunteers into 0.38% sodium citrate (0.013 M, pH 7.0 final). Platelet-rich plasma (PRP) is prepared by centrifugation of whole blood at 160×g for 20 minutes at room temperature. The PRP layer is removed, transferred to a new tube, and the platelet count is adjusted, if necessary, to achieve a platelet concentration of ˜3×10^8 platelets/ml using platelet-poor plasma (PPP). PPP is prepared by centrifugation of the remaining blood sample (after removal of PRP) for 20 minutes at 800×g. This preparation of PRP can subsequently be used for aggregation assays in either a 96-well plate or standard cuvette aggregometry.
For cuvette light transmittance aggregation assays, serial dilutions (1:3) of test compounds were prepared in 100% DMSO in a 96 well V-bottom plate (final DMSO concentration in the cuvette was 0.6%). The test compound (3 μl of serial dilutions in DMSO) was preincubated with PRP for 30-45 seconds prior to initiation of aggregation reactions, which were performed in a ChronoLog aggregometer by addition of agonist (5 or 10 μM ADP) to 490 μL of PRP at 37° C. In some cases, light transmittance aggregometry was performed using 490 μL of washed platelets (prepared as described above) at 37° C., and aggregation was initiated by addition of 5 μM ADP and 0.5 mg/ml human fibrinogen (American Diagnostics, Inc., Greenwich, Conn.). The aggregation reaction is recorded for ˜5 min, and maximum extent of aggregation is determined by the difference in extent of aggregation at baseline, compared to the maximum aggregation that occurs during the five minute period of the assay. Inhibition of aggregation was calculated as the maximum aggregation observed in the presence of inhibitor, compared to that in the absence of inhibitor. IC50s were derived by non-linear regression analysis using the Prism software (GraphPad, San Diego, Calif.).
Inhibition of ADP-dependent aggregation was also determined in 96-well flat-bottom microtiter plates using a microtiter plate shaker and plate reader similar to the procedure described by Frantantoni et al., Am. J. Clin. Pathol. 94, 613 (1990). All steps are performed at room temperature. For 96-well plate aggregation using platelet-rich plasma (PRP), the total reaction volume of 0.2 ml/well includes 180 μl of PRP (˜3×10^8 platelets/ml, see above), 6 μl of either serial dilution of test compounds in 20% DMSO or buffer (for control wells), and 10 μl of 20×ADP agonist solution (100 μM). The OD of the samples is then determined at 450 nm using a microtiter plate reader (Softmax, Molecular Devices, Menlo Park, Calif.) resulting in the 0 minute reading. The plates are then agitated for 5 min on a microtiter plate shaker and the 5 minute reading is obtained in the plate reader. Aggregation is calculated from the decrease of OD at 450 nm at t=5 minutes compared to t=0 minutes and is expressed as % of the decrease in the ADP control samples after correcting for changes in the unaggregated control samples. IC50s were derived by non-linear regression analysis.

Molecules are shown by their SMILES.

In general, IC50 refers to the point on the concentration scale where inhibition reaches its midpoint.

T1 sequence (Q9H244 whole entry): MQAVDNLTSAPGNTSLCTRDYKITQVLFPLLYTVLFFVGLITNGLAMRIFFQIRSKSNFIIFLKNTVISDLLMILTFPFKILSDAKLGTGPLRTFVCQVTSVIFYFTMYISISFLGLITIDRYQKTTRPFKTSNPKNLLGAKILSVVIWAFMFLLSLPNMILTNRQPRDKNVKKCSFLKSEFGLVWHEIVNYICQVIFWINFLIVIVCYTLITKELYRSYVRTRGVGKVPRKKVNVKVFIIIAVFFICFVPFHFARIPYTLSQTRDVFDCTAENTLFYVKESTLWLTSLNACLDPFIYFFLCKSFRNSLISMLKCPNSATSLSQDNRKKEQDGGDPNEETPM

As to `CNc1cc2c(cc1F)C(=O)N(c1ccc(C(=O)NC(c3cccc(Cl)c3)c3nnn[nH]3)cc1)CO2` (stereo not shown) [Compound 80, N-((3-chlorophenyl)(1H-tetrazol-5-yl)methyl)-4-(6-fluoro-7-(methylamino)-4-oxo-2H-benzo[e][1,3]oxazin-3(4H)-yl)benzamide], the 50% inhibitory concentration (IC50) at P2Y12 receptor is 0.05 to 0.5 µM; in assay [1] it was over 30 µM.

With `CNc1cc2c(cc1F)C(=O)N(c1ccc(C(=O)NC(C(=O)O)c3cccc(Cl)c3)cc1)CO2` (stereo not shown) [Compound 81, 2-(3-chlorophenyl)-2-(4-(6-fluoro-7-(methylamino)-4-oxo-2H-benzo[e][1,3]oxazin-3(4H)-yl)benzamido)acetic acid], the IC50 was 0.05 to 0.5 µM at P2Y12 receptor and over 30 µM in assay [1].

With `CNc1cc2c(cc1F)C(=O)N(c1ccc(C(=O)NC(c3ccc(Cl)s3)c3nccs3)cc1)CO2` (stereo not shown) [Compound 82, N-((5-chlorothiophen-2-yl)(thiazol-2-yl)methyl)-4-(6-fluoro-7-(methylamino)-4-oxo-2H-benzo[e][1,3]oxazin-3(4H)-yl)benzamide], the figures for the IC50 (at P2Y12 receptor; in assay [1]) were 0.05 to 0.5 µM and over 30 µM, respectively.

Take `CNc1cc2ccn(-c3ccc(C(=O)NC(C(=O)O)c4ccc(Cl)s4)cc3)c(=O)c2cc1F` (stereo not shown) [Compound 90, 2-(5-chlorothiophen-2-yl)-2-(4-(7-fluoro-6-(methylamino)-1-oxoisoquinolin-2(1H)-yl)benzamido)acetic acid]: the results for the IC50 (at P2Y12 receptor; in assay [1]) were under 0.05 µM and 10 to 30 µM, respectively.

On to `CNc1cc2ccn(-c3ccc(C(=O)NC(c4nnn[nH]4)c4ccc(Cl)s4)cc3)c(=O)c2cc1F` (stereo not shown) [Compound 91, N-((5-chlorothiophen-2-yl)(1H-tetrazol-5-yl)methyl)-4-(7-fluoro-6-(methylamino)-1-oxoisoquinolin-2(1H)-yl)benzamide], for which the results for the IC50 (at P2Y12 receptor; in assay [1]) were under 0.05 µM and 10 to 30 µM, respectively.

`CNc1cc2c(cc1F)C(=O)N(c1ccc(CNC(C(=O)O)c3ccc(Cl)s3)cc1)CO2` (stereo not shown) [Compound 105, 2-(5-chlorothiophen-2-yl)-2-(4-(6-fluoro-7-(methylamino)-4-oxo-2H-benzo[e][1,3]oxazin-3(4H)-yl)benzylamino)acetic acid]: the IC50 at P2Y12 receptor was 0.05 to 0.5 µM; in assay [1] it was over 30 µM.

For the molecule `CNc1cc2c(cc1F)C(=O)N(c1ccc(CNC(CC(=O)O)c3ccc(Cl)s3)cc1)CO2` (stereo not shown) [Compound 106, 3-(5-chlorothiophen-2-yl)-3-(4-(6-fluoro-7-(methylamino)-4-oxo-2H-benzo[e][1,3]oxazin-3(4H)-yl)benzylamino)propanoic acid], the IC50 at P2Y12 receptor is 0.05 to 0.5 µM; in assay [1], over 30 µM.

As for `CNc1cc2ccn(-c3ccc(CNC(C(=O)O)c4ccc(Cl)s4)cc3)c(=O)c2cc1F` (stereo not shown) [Compound 115, 2-(5-chlorothiophen-2-yl)-2-(4-(7-fluoro-6-(methylamino)-1-oxoisoquinolin-2(1H)-yl)benzylamino)acetic acid], the IC50 was 0.05 to 0.5 µM at P2Y12 receptor and over 30 µM in assay [1].

Values taken from patent US7834023B2 (Portola Pharmaceuticals, Inc., priority 2006, dated 2010).
